Test system: toxin-induced cell death in RAW264.7 cells
Conditions: mouse

## CC(=O)N[C@@H](C)C(=O)N[C@@H](Cc1c[nH]c2ccccc12)C(=O)N1CCC[C@H]1C(=O)N[C@@H](CC(C)C)C(=O)N[C@@H](CO)C(=O)N[C@@H](CCC(N)=O)C(=O)N[C@@H](CC(C)C)C(=O)N[C@@H](CC(=O)O)C(=O)N[C@@H](Cc1c[nH]cn1)C(=O)N[C@@H](CO)C(=O)N[C@@H](Cc1ccc(O)cc1)C(=O)N[C@@H](CC(N)=O)C(=O)N[C@@H](CS)C(N)=O [corresponding monovalent peptide]
  IC50: > 2000 µM

— US20090054317A1 (priority 2006, published 2009)
